Results as given in the NIST ThermoML archive (doi:10.1016/j.fluid.2010.03.001).

Test: xn = mol fraction of the nth substance listed
Conditions: 101 kPa, Liquid; for viscosity: Concentric cylinders viscometry; for mass density: Vibrating tube method

C=C(C)[C@H]1CC=C(C)CC1 [(R)-1-methyl-4-(1-methylethenyl)cyclohexene] + CCCCCO
Conditions	mass density [kg/m3]	viscosity [mPa·s]
293.15 K, x2 = 0	841.5	0.902
293.15 K, x2 = 0.092	839.4	0.935
293.15 K, x2 = 0.1644	837.8	0.983
293.15 K, x2 = 0.2748	835.4	1.079
293.15 K, x2 = 0.3592	833.5	1.182
293.15 K, x2 = 0.4565	831.2	1.34
293.15 K, x2 = 0.5542	828.8	1.564
293.15 K, x2 = 0.6068	827.4	1.717
293.15 K, x2 = 0.647	826.4	1.851
293.15 K, x2 = 0.7365	823.8	2.213
293.15 K, x2 = 0.8234	821.1	2.66
293.15 K, x2 = 0.9105	818.1	3.26
303.15 K, x2 = 0	833.6	0.793
303.15 K, x2 = 0.092	831.4	0.814
303.15 K, x2 = 0.1644	829.8	0.85
303.15 K, x2 = 0.2748	827.4	0.923
303.15 K, x2 = 0.3592	825.4	1
303.15 K, x2 = 0.4565	823.2	1.115
303.15 K, x2 = 0.5542	820.8	1.275
303.15 K, x2 = 0.6068	819.5	1.384
303.15 K, x2 = 0.647	818.4	1.477
303.15 K, x2 = 0.7365	816	1.73
303.15 K, x2 = 0.8234	813.4	2.055
303.15 K, x2 = 0.9105	810.5	2.473
313.15 K, x2 = 0	825.8	0.702
313.15 K, x2 = 0.092	823.4	0.716
313.15 K, x2 = 0.1644	821.8	0.743
313.15 K, x2 = 0.2748	819.4	0.799
313.15 K, x2 = 0.3592	817.4	0.854
313.15 K, x2 = 0.4565	815.2	0.942
313.15 K, x2 = 0.5542	812.9	1.057
313.15 K, x2 = 0.6068	811.6	1.137
313.15 K, x2 = 0.647	810.6	1.201
313.15 K, x2 = 0.7365	808.2	1.386
313.15 K, x2 = 0.8234	805.8	1.617
313.15 K, x2 = 0.9105	803	1.915
323.15 K, x2 = 0	817.9	0.628
323.15 K, x2 = 0.092	815.4	0.635
323.15 K, x2 = 0.1644	813.7	0.655
323.15 K, x2 = 0.2748	811.3	0.699
323.15 K, x2 = 0.3592	809.3	0.737
323.15 K, x2 = 0.4565	807.1	0.805
323.15 K, x2 = 0.5542	804.8	0.891
323.15 K, x2 = 0.6068	803.5	0.949
323.15 K, x2 = 0.647	802.5	0.995
323.15 K, x2 = 0.7365	800.2	1.129
323.15 K, x2 = 0.8234	797.9	1.298
323.15 K, x2 = 0.9105	795.3	1.51
333.15 K, x2 = 0	809.9	0.566
333.15 K, x2 = 0.092	807.3	0.568
333.15 K, x2 = 0.1644	805.5	0.582
333.15 K, x2 = 0.2748	803	0.616
333.15 K, x2 = 0.3592	801	0.644
333.15 K, x2 = 0.4565	798.8	0.696
333.15 K, x2 = 0.5542	796.5	0.761
333.15 K, x2 = 0.6068	795.2	0.803
333.15 K, x2 = 0.647	794.2	0.837
333.15 K, x2 = 0.7365	792.2	0.937
333.15 K, x2 = 0.8234	789.8	1.06
333.15 K, x2 = 0.9105	787.3	1.219
343.15 K, x2 = 0	801.9	0.5
343.15 K, x2 = 0.092	799.2	0.511
343.15 K, x2 = 0.1644	797.2	0.52
343.15 K, x2 = 0.2748	794.6	0.546
343.15 K, x2 = 0.3592	792.6	0.567
343.15 K, x2 = 0.4565	790.4	0.608
343.15 K, x2 = 0.5542	788.2	0.657
343.15 K, x2 = 0.6068	787	0.688
343.15 K, x2 = 0.647	786	0.713
343.15 K, x2 = 0.7365	783.7	0.786
343.15 K, x2 = 0.8234	781.5	0.878
343.15 K, x2 = 0.9105	779.1	0.996
353.15 K, x2 = 0	793.6	0.452
353.15 K, x2 = 0.092	790.8	0.462
353.15 K, x2 = 0.1644	788.9	0.468
353.15 K, x2 = 0.2748	786.2	0.487
353.15 K, x2 = 0.3592	784.2	0.502
353.15 K, x2 = 0.4565	781.9	0.534
353.15 K, x2 = 0.5542	779.5	0.571
353.15 K, x2 = 0.6068	778.4	0.594
353.15 K, x2 = 0.647	777.4	0.615
353.15 K, x2 = 0.7365	775.2	0.669
353.15 K, x2 = 0.8234	773.1	0.737
353.15 K, x2 = 0.9105	770.6	0.827
363.15 K, x2 = 0	785.4	0.413
363.15 K, x2 = 0.092	782.5	0.421
363.15 K, x2 = 0.1644	780.4	0.424
363.15 K, x2 = 0.2748	777.7	0.438
363.15 K, x2 = 0.3592	775.6	0.448
363.15 K, x2 = 0.4565	773.2	0.473
363.15 K, x2 = 0.5542	770.9	0.502
363.15 K, x2 = 0.6068	769.6	0.519
363.15 K, x2 = 0.647	768.6	0.535
363.15 K, x2 = 0.7365	766.5	0.576
363.15 K, x2 = 0.8234	764.4	0.627
363.15 K, x2 = 0.9105	762	0.691
373.15 K, x2 = 0	777.1	0.382
373.15 K, x2 = 0.092	774.3	0.385
373.15 K, x2 = 0.1644	771.9	0.386
373.15 K, x2 = 0.2748	769	0.395
373.15 K, x2 = 0.3592	766.9	0.402
373.15 K, x2 = 0.4565	764.4	0.421
373.15 K, x2 = 0.5542	762	0.443
373.15 K, x2 = 0.6068	760.7	0.456
373.15 K, x2 = 0.647	759.7	0.469
373.15 K, x2 = 0.7365	757.7	0.499
373.15 K, x2 = 0.8234	755.7	0.538
373.15 K, x2 = 0.9105	753.1	0.584
